According to paper PMC5942779, “Identification of a peptide inhibitor for the histone methyltransferase WHSC1” (PLoS ONE, 2018):
Square brackets hold non-standard residues; d marks the D form. Peptide text beside a SMILES is read from it. Nle = CCCC[C@H](N)C(=O)O

Columns and labels:
[1] = target: T1, WHSC1 941–1240 (Homo sapiens, UniProt O96028); test: WHSC1 941–1240 radiometric biochemical assay (3H methyl transfer from SAM to biotinylated H4 peptide); details: for IC50: radiometric, 10 nM enzyme, 1 μM total SAM, 0.5 μM H4 peptide, 30 min pre-incubation, 120 min, 25°C, pH 8.0, three independent replicates
T1 construct: GST-tagged WHSC1 941–1240 (#51026); GST; purchased BPS Bioscience 51026
T1 sequence (O96028 941-1240): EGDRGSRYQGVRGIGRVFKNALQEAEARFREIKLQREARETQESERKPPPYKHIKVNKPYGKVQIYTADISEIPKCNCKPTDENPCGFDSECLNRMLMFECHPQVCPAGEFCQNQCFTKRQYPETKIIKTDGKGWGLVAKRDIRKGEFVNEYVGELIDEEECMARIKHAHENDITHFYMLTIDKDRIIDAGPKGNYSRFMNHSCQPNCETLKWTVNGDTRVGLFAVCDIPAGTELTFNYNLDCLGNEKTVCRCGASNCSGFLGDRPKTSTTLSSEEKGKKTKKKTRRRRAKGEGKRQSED
Protocol: (§1) An optimized 1× assay buffer containing 20 mM Tris-HCl (pH 8.0), 1 mM DTT, 0.005% Tween-20, and 0.01% bovine skin gelatin was utilized. […] The reaction was quenched after 120 minutes by adding excess (1 mM final concentration) unlabeled SAM. Quenched reactions were transferred onto streptavidin coated Flashplates (PerkinElmer), incubated for 2 hours, washed 1x with 0.1% Tween 20, and read on a Topcount instrument (PerkinElmer).
(§2) The reaction was initiated by adding 10 μL substrate mix containing peptide and SAM. Concentration–response curves in units of percent inhibition were plotted as a function of inhibitor concentration and fitted in GraphPad Prism to determine the IC50 values using a four-parameter logistic equation.

[2] = target: T2, Avi-tagged WHSC1 941–1240 (Homo sapiens, UniProt O96028); test: SPR binding assay, Avi-tagged WHSC1 941–1240
T2 construct: purchased BPS Bioscience 111207
T2 sequence (O96028 941-1240 limits assumed): T1 sequence (O96028 941-1240)
Protocol: The SPR binding assay for Avi-tagged WHSC1 941–1240 was performed at 15°C using the Biacore T200 system (GE Healthcare, Marlborough, MA). The running buffer contained 25 mM Tris-HCl pH 8.0, 150 mM NaCl, 5 mM DTT, 0.05% Tween-20, 10 μM ZnCl2, 50 μM SAM, and 2% DMSO. Biotinylated WHSC1 was immobilized on a streptavidin-coated SA chip up to 3700 RU (response units). The reference cell was blocked with PEG-biotin. Peptide inhibitor was injected at a flow rate of 50 μL/min with a 3-fold, 5-point dilution series ending at a 20 μM top concentration. Association and dissociation times were 240 and 2400 seconds, respectively. Double-referenced data were analyzed globally using a 1:1 binding model in BIAevaluation software.
WHSC1 was immobilized on a streptavidin-coated chip and peptide inhibitor was co-injected with SAM utilizing a 3-fold, 5-point dilution series ending at a 20 μM top concentration.
WHSC1 was immobilized on a streptavidin-coated chip and peptide inhibitor was either injected in the absence of cofactor (left panel), co-injected with SAH (middle panel), or co-injected with SFG (right panel) utilizing a 2-fold, 10-point dilution series ending at a 100 μM top concentration.

[3] = target: T3, WHSC1L1 1054–1285 (Homo sapiens, UniProt Q9BZ95); test: WHSC1L1 1054–1285 radiometric biochemical assay; details: 40 nM enzyme, 6 μM total SAM, 0.8 μM peptide, 30 min pre-incubation, three independent replicates
T3 construct: A WHSC1L1 construct containing amino acids 1054–1285; His-TEV (N, cleaved yes); made in house; host or cells: E. coli
T3 sequence (Q9BZ95 1054-1285): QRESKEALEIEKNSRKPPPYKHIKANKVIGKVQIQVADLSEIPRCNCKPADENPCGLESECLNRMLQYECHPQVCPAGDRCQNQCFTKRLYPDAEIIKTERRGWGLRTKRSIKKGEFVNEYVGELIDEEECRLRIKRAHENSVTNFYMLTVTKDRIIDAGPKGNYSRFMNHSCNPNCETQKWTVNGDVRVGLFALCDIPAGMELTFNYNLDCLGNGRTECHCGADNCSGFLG
Protocol: as §1, §2

[4] = target: EZH1 (Homo sapiens, UniProt Q92800); test: HMT panel biochemical assay, EZH1; details: HMT selectivity panel
[5] = target: T4, G9a (Homo sapiens, UniProt Q96KQ7); test: HMT panel biochemical assay, G9a; details: HMT selectivity panel
T4 sequence (Q96KQ7 1-1210): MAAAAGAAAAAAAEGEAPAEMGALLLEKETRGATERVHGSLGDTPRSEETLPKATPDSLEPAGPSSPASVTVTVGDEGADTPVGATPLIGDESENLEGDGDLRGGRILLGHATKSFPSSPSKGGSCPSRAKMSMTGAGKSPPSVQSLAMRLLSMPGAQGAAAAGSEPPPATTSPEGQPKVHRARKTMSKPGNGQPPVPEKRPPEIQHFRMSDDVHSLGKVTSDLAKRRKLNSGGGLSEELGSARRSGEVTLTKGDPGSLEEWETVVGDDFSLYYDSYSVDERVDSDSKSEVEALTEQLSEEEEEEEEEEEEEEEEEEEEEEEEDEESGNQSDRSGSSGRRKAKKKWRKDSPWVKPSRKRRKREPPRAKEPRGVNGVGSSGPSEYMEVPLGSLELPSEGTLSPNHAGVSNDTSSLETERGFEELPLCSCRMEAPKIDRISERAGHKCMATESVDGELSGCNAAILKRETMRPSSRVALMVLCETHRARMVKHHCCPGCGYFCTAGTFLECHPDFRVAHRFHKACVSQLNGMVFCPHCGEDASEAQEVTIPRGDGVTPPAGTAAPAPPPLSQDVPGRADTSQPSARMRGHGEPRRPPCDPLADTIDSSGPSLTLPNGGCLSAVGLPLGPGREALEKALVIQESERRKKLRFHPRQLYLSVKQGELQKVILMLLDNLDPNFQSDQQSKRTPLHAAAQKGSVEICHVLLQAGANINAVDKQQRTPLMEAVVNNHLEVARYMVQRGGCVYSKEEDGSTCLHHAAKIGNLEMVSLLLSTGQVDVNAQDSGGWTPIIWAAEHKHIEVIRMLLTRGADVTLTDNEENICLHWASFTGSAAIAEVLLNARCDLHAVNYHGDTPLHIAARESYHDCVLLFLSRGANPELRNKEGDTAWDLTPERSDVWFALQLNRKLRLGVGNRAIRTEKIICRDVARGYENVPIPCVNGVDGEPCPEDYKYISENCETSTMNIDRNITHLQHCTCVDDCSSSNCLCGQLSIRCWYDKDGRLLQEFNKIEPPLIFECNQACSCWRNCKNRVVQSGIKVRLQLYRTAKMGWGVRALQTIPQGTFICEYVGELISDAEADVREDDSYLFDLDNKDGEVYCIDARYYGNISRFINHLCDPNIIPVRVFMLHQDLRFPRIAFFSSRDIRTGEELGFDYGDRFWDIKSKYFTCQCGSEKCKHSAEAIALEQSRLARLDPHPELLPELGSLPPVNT

[6] = target: SMYD2 (Homo sapiens, UniProt Q9NRG4); test: HMT panel biochemical assay, SMYD2; details: HMT selectivity panel
[7] = target: EZH2 (Homo sapiens, UniProt Q15910); test: HMT panel biochemical assay, EZH2; details: HMT selectivity panel
[8] = target: SETDB1 (Homo sapiens, UniProt Q15047); test: HMT panel biochemical assay, SETDB1; details: HMT selectivity panel
[9] = target: PRMT6 (Homo sapiens, UniProt Q96LA8); test: HMT panel biochemical assay, PRMT6; details: HMT selectivity panel
[10] = ratio of WHSC1 941–1240 biochemical IC50 values

PRMT6, sequence (Q96LA8 whole entry, species assumed): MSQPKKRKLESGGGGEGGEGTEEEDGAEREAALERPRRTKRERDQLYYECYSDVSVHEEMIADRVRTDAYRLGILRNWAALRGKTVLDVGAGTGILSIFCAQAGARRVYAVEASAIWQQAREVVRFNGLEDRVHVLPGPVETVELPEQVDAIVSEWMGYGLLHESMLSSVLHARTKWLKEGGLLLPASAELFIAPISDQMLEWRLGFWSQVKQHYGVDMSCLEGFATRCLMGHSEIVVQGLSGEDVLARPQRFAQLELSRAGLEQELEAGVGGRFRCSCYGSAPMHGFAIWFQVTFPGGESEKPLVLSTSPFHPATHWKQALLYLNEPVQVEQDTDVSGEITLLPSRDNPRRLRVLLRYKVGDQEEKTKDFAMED
EZH2, sequence (Q15910 whole entry, species assumed): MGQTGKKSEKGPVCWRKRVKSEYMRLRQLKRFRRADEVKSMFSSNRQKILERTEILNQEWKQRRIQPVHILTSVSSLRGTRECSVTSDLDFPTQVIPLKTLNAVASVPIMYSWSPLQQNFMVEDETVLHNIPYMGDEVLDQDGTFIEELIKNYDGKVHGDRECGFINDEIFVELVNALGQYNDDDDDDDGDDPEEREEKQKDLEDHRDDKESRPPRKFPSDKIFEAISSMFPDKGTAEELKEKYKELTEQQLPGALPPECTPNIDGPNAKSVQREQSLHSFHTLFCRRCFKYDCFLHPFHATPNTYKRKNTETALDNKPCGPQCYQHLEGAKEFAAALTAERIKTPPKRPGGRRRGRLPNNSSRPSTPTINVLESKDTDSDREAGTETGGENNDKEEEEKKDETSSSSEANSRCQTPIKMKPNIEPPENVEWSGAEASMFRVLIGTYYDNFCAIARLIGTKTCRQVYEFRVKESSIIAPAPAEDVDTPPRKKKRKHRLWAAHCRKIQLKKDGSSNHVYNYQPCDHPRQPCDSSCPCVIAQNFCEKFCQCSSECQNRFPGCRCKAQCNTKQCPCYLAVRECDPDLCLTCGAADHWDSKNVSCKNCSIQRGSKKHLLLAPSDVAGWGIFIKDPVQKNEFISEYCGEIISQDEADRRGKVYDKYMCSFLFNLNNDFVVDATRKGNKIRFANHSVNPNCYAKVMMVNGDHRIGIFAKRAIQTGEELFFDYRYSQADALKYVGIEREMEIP
EZH2, sequence (O75530 whole entry partner, species assumed): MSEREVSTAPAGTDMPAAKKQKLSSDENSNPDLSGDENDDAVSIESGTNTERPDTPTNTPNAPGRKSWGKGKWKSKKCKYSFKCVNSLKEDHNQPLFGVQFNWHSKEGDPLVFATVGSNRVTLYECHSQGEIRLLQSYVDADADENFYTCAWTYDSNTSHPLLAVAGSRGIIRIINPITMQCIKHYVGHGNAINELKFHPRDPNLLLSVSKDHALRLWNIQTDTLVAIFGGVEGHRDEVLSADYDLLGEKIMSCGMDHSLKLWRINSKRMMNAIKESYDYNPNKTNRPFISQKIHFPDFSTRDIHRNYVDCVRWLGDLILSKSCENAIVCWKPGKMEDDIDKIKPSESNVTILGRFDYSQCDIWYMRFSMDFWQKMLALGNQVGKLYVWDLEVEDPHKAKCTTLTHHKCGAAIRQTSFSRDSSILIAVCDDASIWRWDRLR
EZH2, sequence (Q15022 whole entry partner, species assumed): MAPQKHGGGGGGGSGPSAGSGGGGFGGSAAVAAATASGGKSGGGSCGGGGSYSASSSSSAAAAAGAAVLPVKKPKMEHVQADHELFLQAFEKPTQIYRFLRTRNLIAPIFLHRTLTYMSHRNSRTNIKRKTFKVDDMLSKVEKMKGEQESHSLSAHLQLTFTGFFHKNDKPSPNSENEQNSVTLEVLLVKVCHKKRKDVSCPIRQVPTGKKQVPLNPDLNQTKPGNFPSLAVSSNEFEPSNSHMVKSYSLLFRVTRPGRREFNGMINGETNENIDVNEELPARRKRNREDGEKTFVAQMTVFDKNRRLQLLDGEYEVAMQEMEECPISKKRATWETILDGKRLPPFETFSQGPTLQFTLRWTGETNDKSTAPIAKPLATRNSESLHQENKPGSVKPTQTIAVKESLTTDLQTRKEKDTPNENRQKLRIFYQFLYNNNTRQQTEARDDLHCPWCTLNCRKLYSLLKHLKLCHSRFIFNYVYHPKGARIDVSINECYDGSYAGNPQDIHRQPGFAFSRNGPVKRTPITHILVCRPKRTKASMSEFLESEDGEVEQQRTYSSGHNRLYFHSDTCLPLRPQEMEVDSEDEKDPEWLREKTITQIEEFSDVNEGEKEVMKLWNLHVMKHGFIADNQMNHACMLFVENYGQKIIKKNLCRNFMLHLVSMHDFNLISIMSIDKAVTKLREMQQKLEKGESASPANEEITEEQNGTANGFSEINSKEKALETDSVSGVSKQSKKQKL
SMYD2, sequence (Q9NRG4 whole entry, species assumed): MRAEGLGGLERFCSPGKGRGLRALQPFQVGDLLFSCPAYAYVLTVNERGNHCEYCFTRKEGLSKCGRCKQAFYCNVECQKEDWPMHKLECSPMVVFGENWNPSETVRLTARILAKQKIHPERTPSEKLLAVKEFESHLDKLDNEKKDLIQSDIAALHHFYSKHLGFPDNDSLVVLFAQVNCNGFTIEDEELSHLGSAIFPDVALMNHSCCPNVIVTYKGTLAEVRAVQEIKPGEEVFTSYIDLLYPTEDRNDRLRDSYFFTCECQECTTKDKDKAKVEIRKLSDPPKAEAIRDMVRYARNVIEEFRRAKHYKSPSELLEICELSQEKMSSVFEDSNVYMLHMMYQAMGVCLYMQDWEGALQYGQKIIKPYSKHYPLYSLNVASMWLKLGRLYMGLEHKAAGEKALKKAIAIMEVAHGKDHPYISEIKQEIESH
EZH1, sequence (Q92800 whole entry, species assumed): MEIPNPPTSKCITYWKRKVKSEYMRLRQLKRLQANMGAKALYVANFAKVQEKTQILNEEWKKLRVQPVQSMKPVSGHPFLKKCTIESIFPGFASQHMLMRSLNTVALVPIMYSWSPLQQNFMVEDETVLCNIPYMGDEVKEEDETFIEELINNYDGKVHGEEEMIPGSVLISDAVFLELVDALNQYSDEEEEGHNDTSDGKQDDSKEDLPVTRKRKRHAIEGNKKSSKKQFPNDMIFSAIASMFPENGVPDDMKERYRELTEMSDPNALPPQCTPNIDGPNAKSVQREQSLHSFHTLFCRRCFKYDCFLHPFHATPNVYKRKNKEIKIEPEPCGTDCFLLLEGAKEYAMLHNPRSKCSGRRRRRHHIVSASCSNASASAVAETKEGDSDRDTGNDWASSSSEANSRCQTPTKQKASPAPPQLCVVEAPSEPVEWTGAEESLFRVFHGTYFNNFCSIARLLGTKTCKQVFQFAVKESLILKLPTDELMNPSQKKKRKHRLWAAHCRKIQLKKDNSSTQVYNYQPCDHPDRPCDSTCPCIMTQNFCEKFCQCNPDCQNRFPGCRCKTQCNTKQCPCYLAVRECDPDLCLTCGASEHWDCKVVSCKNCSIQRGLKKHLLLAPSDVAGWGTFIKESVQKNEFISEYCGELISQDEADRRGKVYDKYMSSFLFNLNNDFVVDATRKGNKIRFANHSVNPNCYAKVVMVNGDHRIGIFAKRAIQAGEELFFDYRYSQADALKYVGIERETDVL
EZH1, sequence (O75530 whole entry partner, species assumed): as the sequence (O75530 whole entry partner, species assumed) above
EZH1, sequence (Q15022 whole entry partner, species assumed): as the sequence (Q15022 whole entry partner, species assumed) above

CCCC[C@H](NC(=O)[C@@H](NC(=O)CNC(=O)CNC(=O)[C@H](CCCNC(=N)N)NC(=O)[C@H](CCCNC(=N)N)NC(=O)[C@H](C)NC(=O)[C@H](CC(C)C)NC(=O)[C@H](CCCNC(=N)N)NC(C)=O)C(C)C)C(=O)N[C@@H](CCCNC(=N)N)C(=O)N[C@H](C(=O)N[C@@H](CO)C(=O)NCC(=O)N[C@@H](CC(C)C)C(=O)N[C@H](C(N)=O)[C@@H](C)CC)[C@@H](C)CC [PTD1] (Ac-RLARRGGV[Nle]RISGLI-NH2)
IC50 [1]: 0.088 ± 0.005 µM | fold more potent towards WHSC1 than the 5 residue Nle peptide (PTD2) [1, 10]: 250 fold | SPR behaviour on the sensor surface ([2]; at concentrations greater than 1 μM, affinity to WHSC1 could not be determined): non-specific matrix interactions | IC50 [3]: 1.1 ± 0.1 µM

CCCC[C@H](NC(=O)[C@@H](NC(=O)CNC(C)=O)C(C)C)C(=O)N[C@@H](CCCNC(=N)N)C(=O)N[C@H](C(N)=O)[C@@H](C)CC [PTD2]
IC50 [4]: > 200 µM | IC50 [5]: > 200 µM | IC50 [6]: > 200 µM | IC50 [7]: > 200 µM | IC50 [8]: > 200 µM | IC50 [9]: > 200 µM | SPR binding in the absence of cofactor ([2]; no cofactor, 2-fold, 10-point dilution, top concentration 100 μM): no binding is observed

CCCC[C@H](NC(=O)[C@@H](NC(=O)CNC(=O)CNC(C)=O)C(C)C)C(=O)N[C@@H](CCCNC(=N)N)C(N)=O [PTD4] (Ac-GGV[Nle]R-NH2)
IC50 [1]: 180 ± 20 µM | IC50 [3]: 320 ± 30 µM

CCCC[C@H](NC(=O)[C@@H](NC(=O)CNC(=O)CNC(=O)[C@H](CCCNC(=N)N)NC(C)=O)C(C)C)C(N)=O [PTD5] (Ac-RGGV[Nle]-NH2)
IC50 [1]: 190 ± 20 µM | IC50 [3]: 110 ± 10 µM

CCCC[C@H](NC(=O)[C@@H](NC(C)=O)C(C)C)C(=O)N[C@@H](CCCNC(=N)N)C(=O)N[C@H](C(=O)N[C@@H](CO)C(N)=O)[C@@H](C)CC [PTD6] (Ac-V[Nle]RIS-NH2)
IC50 [1]: 110 ± 20 µM | IC50 [3]: 3 ± 0.3 µM

CCCC[C@H](NC(C)=O)C(=O)N[C@@H](CCCNC(=N)N)C(=O)N[C@H](C(=O)N[C@@H](CO)C(=O)NCC(N)=O)[C@@H](C)CC [PTD7] (Ac-[Nle]RISG-NH2)
IC50 [1]: 200 ± 40 µM | IC50 [3]: > 1000 µM

CCCC[C@H](NC(=O)[C@@H](NC(=O)CNC(=O)CNC(=O)[C@@H](NC(=O)[C@H](C)NC(=O)[C@@H]1CCCN1C(=O)[C@H](C)NC(=O)[C@H](CO)NC(C)=O)[C@@H](C)O)C(C)C)C(=O)N[C@@H](CCCCN)C(=O)N1CCC[C@H]1C(=O)N[C@@H](Cc1c[nH]cn1)C(=O)N[C@@H](CCCNC(=N)N)C(=O)N[C@@H](Cc1ccc(O)cc1)C(=O)N[C@@H](CCCNC(=N)N)C(N)=O [PTD8]
IC50 [1]: 13 ± 1 µM | fold loss in WHSC1 potency compared with PTD1 [1, 10]: 150 fold | IC50 [3]: 190 ± 30 µM

CCCC[C@H](NC(=O)[C@@H](NC(=O)CNC(C)=O)C(C)C)C(=O)N[C@@H](CCCCN)C(=O)N1CCC[C@H]1C(N)=O [PTD9] (Ac-GV[Nle]KP-NH2)
IC50 [1]: 130 ± 20 µM | fold decrease in WHSC1 potency relative to PTD2 [1, 10]: 6 fold | IC50 [3]: 370 ± 40 µM

Ac-GVARI-NH2 [PTD3]
IC50 [1]: 640 ± 70 µM | fold decrease in WHSC1 potency relative to PTD2 [1, 10]: 30 fold | IC50 [3]: > 1000 µM
